Source: the supplement of paper PMC11061612

Key:
[1] = system: EoL-1-cell (Acute Myeloid Leukemia); assay: Bliss excess, mean over the matrix (fraction); higher = more synergy
Summary of the method: (§1)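 After 24 hours at 37°C and 5% CO2 in 1536-well plates, cells in DMEM/F12 or RPMI plus 10% FBS received two-drug dose matrices for 72 hours. Viability came from CellTiter-Glo 2.0 luminescence and was scaled as inhibition, anchored at 0 by vehicle wells and at 1 by blank wells. Combination Emax is taken as the second-highest inhibition in the matrix, and Bliss excess as the observed combination effect less EA + EB − EA·EB, with EA and EB the single-agent effects.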

TGW (Neuroblastoma) = assay: as above
Summary of the method: as §1

NB69 (Neuroblastoma) = assay: as above
Summary of the method: as §1

[2] = system: NCI-H727 (Other Solid Carcinomas); assay: as above
Summary of the method: as §1

[3] = system: OSC-20 (Oral Cavity Carcinoma); assay: as above
Summary of the method: as §1

[4] = system: Hs-766T (Pancreatic Carcinoma); assay: as above
Summary of the method: as §1

[5] = system: TE-1 (Esophageal Squamous Cell Carcinoma); assay: as above
Summary of the method: as §1

D-263MG (Glioblastoma) = assay: as above
Summary of the method: as §1

[6] = system: Ca9-22 (Head and Neck Carcinoma); assay: as above
Summary of the method: as §1

[7] = system: NCI-H1915 (Non-Small Cell Lung Carcinoma); assay: as above
Summary of the method: as §1

TK10 (Kidney Carcinoma) = assay: as above
Summary of the method: as §1

[8] = system: KYSE-450 (Esophageal Squamous Cell Carcinoma); assay: as above
Summary of the method: as §1

[9] = system: HOP-62 (Lung Adenocarcinoma); assay: as above
Summary of the method: as §1

[10] = system: VA-ES-BJ (Other Solid Carcinomas); assay: as above
Summary of the method: as §1

EW-24 (Ewing's Sarcoma) = assay: as above
Summary of the method: as §1

[11] = system: EFM-19 (Breast Carcinoma); assay: as above
Summary of the method: as §1

[12] = system: MIA-PaCa-2 (Pancreatic Carcinoma); assay: as above
Summary of the method: as §1

[13] = system: MLMA (Other Blood Carcinomas); assay: as above
Summary of the method: as §1

[14] = system: Caov-4 (Ovarian Carcinoma); assay: as above
Summary of the method: as §1

[15] = system: NEC8 (Other Solid Carcinomas); assay: combination Emax (second highest fraction inhibited in the dose matrix, 72 h); higher = more inhibition; extreme values may be limits of the assay
Summary of the method: as §1
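Throughout, for Bliss excess, mean over the matrix: after 72 h of two-drug dosing.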

In the case of `COc1cccc(OCCCN)c1-c1cc(Nc2cnc(C#N)cn2)n[nH]1` [Prexasertib] + CCc1c2c(nc3ccc(O)cc13)-c1cc3c(c(=O)n1C2)COC(=O)[C@]3(O)CC [SN-38] (first compound max 1 µM, 7x7, partner max 0.3 µM), the Bliss excess [1] is reported as -0.0317, the Bliss excess (TGW (Neuroblastoma)) is reported as -0.0284 and the Bliss excess (NB69 (Neuroblastoma)) is reported as -0.0556. The Bliss excess [2] was -0.0425, the Bliss excess [3] was -0.0477 and the Bliss excess [4] was -0.0063. The Bliss excess [5] was -0.0025, the Bliss excess (D-263MG (Glioblastoma)) was 0.0688 and the Bliss excess [6] was 0.0163. It also gave a Bliss excess [7] of 0.0086, a Bliss excess (TK10 (Kidney Carcinoma)) of -0.0257 and a Bliss excess [8] of 0.19. The Bliss excess [9] was -0.0279, the Bliss excess [10] was -0.044 and the Bliss excess (EW-24 (Ewing's Sarcoma)) was -0.0615. For the same compound, the Bliss excess [11] was 0.155, the Bliss excess [12] was 0.0334 and the Bliss excess [13] was -0.0732. For the same compound, the Bliss excess [14] was -0.0332 and the “combination Emax” value [15] was 1.
`CCN(CCO)CCCOc1ccc2c(Nc3cc(CC(=O)Nc4cccc(F)c4)[nH]n3)ncnc2c1` [AZD2811] + C[C@@H]1COCCN1C2=NC(=NC(=C2)C3(CC3)[S@](=N)(=O)C)C4=C5C=CNC5=NC=C4 [AZD6738] (first compound max 1 µM, 7x7, partner max 10 µM) showed a Bliss excess [1] of -0.0354, a Bliss excess (TGW (Neuroblastoma)) of -0.0211 and a Bliss excess (NB69 (Neuroblastoma)) of -0.0806. The Bliss excess [2] was -0.0849, the Bliss excess [3] was 0.0279 and the Bliss excess [4] was -0.0734. It also gave a Bliss excess [5] of -0.0042, a Bliss excess (D-263MG (Glioblastoma)) of -0.0611 and a Bliss excess [6] of 0.0323. The Bliss excess [7] was 0.0021, the Bliss excess (TK10 (Kidney Carcinoma)) was -0.0811 and the Bliss excess [8] was -0.0621. It also gave a Bliss excess [9] of -0.0313, a Bliss excess [10] of -0.0217 and a Bliss excess (EW-24 (Ewing's Sarcoma)) of -0.104. The Bliss excess [11] was -0.0478, the Bliss excess [12] was -0.0797 and the Bliss excess [13] was -0.0692. The Bliss excess [14] was -0.0065 and the “combination Emax” value [15] was 0.649.
For `CCN(CCO)CCCOc1ccc2c(Nc3cc(CC(=O)Nc4cccc(F)c4)[nH]n3)ncnc2c1` [AZD2811] + O=C(c1cc(Cc2n[nH]c(=O)c3ccccc23)ccc1F)N1CCN(C(=O)C2CC2)CC1 [Olaparib] (first compound max 1 µM, 7x7, partner max 10 µM), the Bliss excess [1] was -0.03, the Bliss excess (TGW (Neuroblastoma)) was -0.0236 and the Bliss excess (NB69 (Neuroblastoma)) was -0.0517. It also gave a Bliss excess [2] of -0.0184, a Bliss excess [3] of -0.0196 and a Bliss excess [4] of -0.0415. It also gave a Bliss excess [5] of -0.031, a Bliss excess (D-263MG (Glioblastoma)) of -0.0018 and a Bliss excess [6] of 0.0109. For the same compound, the Bliss excess [7] was 0.025, the Bliss excess (TK10 (Kidney Carcinoma)) was -0.0391 and the Bliss excess [8] was -0.0135. The Bliss excess [9] was -0.0376, the Bliss excess [10] was 0.0206 and the Bliss excess (EW-24 (Ewing's Sarcoma)) was 0.0173. The Bliss excess [11] was -0.0669, the Bliss excess [12] was 0.0461 and the Bliss excess [13] was -0.0191. For the same compound, the Bliss excess [14] was 0.0034 and the “combination Emax” value [15] was 0.13.
For `CN(C)CCCOc1ccc(-c2ccc3ncc4c(c3c2)n(C2CCOCC2)c(=O)n4C)cn1` [AZD0156] + C=CCn1c(=O)c2cnc(Nc3ccc(N4CCN(C)CC4)cc3)nc2n1-c1cccc(C(C)(C)O)n1 [AZD1775] (first compound max 1 µM, partner max 1 µM), the Bliss excess [1] was 0.0416, the Bliss excess (TGW (Neuroblastoma)) was -0.0051 and the Bliss excess (NB69 (Neuroblastoma)) was -0.0337. The Bliss excess [2] was -0.095, the Bliss excess [3] was -0.0443 and the Bliss excess [4] was -0.0232. It also gave a Bliss excess [5] of -0.0167, a Bliss excess (D-263MG (Glioblastoma)) of -0.039 and a Bliss excess [6] of -0.0042. It also gave a Bliss excess [7] of -0.0572, a Bliss excess (TK10 (Kidney Carcinoma)) of -0.0318 and a Bliss excess [8] of -0.0487. For the same compound, the Bliss excess [9] was -0.0403, the Bliss excess [10] was -0.0235 and the Bliss excess (EW-24 (Ewing's Sarcoma)) was -0.0804. The Bliss excess [11] was -0.0295, the Bliss excess [12] was -0.0303 and the Bliss excess [13] was -0.0081. For the same compound, the Bliss excess [14] was 0.0155 and the “combination Emax” value [15] was 0.336.
Compound `C=CCn1c(=O)c2cnc(Nc3ccc(N4CCN(C)CC4)cc3)nc2n1-c1cccc(C(C)(C)O)n1` [AZD1775] + C1CN(CCC1(C(=O)N[C@@H](CCO)C2=CC=C(C=C2)Cl)N)C3=NC=NC4=C3C=CN4 [Capivasertib] (first compound max 3 µM, partner max 3 µM) has a Bliss excess [1] of -0.0451, a Bliss excess (TGW (Neuroblastoma)) of -0.0542 and a Bliss excess (NB69 (Neuroblastoma)) of -0.0304. It also gave a Bliss excess [2] of -0.0584, a Bliss excess [3] of -0.0196 and a Bliss excess [4] of -0.0513. It also gave a Bliss excess [5] of 0.001, a Bliss excess (D-263MG (Glioblastoma)) of -0.0143 and a Bliss excess [6] of -0.0236. The Bliss excess [7] was 0.0032, the Bliss excess (TK10 (Kidney Carcinoma)) was -0.124 and the Bliss excess [8] was -0.0843. The Bliss excess [9] was -0.0872, the Bliss excess [10] was -0.0037 and the Bliss excess (EW-24 (Ewing's Sarcoma)) was -0.0878. For the same compound, the Bliss excess [11] was -0.0443, the Bliss excess [12] was -0.0471 and the Bliss excess [13] was -0.0415. The Bliss excess [14] was -0.0398 and the “combination Emax” value [15] was 0.985.
Compound `COc1cccc2c1C(=O)c1c(O)c3c(c(O)c1C2=O)C[C@@](O)(C(=O)CO)C[C@@H]3O[C@H]1C[C@H](N)[C@H](O)[C@H](C)O1` [Doxorubicin] + Cc1cc2ncnn2cc1Nc1ncc2c(n1)n(C1CCOCC1)c(=O)n2C [AZD7648] (first compound max 1 µM, 7x7, partner max 10 µM) has a Bliss excess [1] of 0.155, a Bliss excess (TGW (Neuroblastoma)) of 0.0041 and a Bliss excess (NB69 (Neuroblastoma)) of 0.0516. For the same compound, the Bliss excess [2] was -0.0417, the Bliss excess [3] was 0.0204 and the Bliss excess [4] was -0.012. For the same compound, the Bliss excess [5] was -0.022, the Bliss excess (D-263MG (Glioblastoma)) was 0.032 and the Bliss excess [6] was 0.0703. It also gave a Bliss excess [7] of 0.0154, a Bliss excess (TK10 (Kidney Carcinoma)) of 0.0138 and a Bliss excess [8] of 0.0487. The Bliss excess [9] was 0.0399, the Bliss excess [10] was 0.0383 and the Bliss excess (EW-24 (Ewing's Sarcoma)) was 0.0145. For the same compound, the Bliss excess [11] was 0.0055, the Bliss excess [12] was 0.0167 and the Bliss excess [13] was -0.0214. The Bliss excess [14] was 0.056 and the “combination Emax” value [15] was 0.973.
With `NC1(C(=O)N[C@@H](CCO)c2ccc(Cl)cc2)CCN(c2ncnc3[nH]ccc23)CC1` [Capivasertib] + Cn1cnc2c(F)c(Nc3ccc(Br)cc3Cl)c(C(=O)NOCCO)cc21 [Selumetinib] (first compound max 10 µM, 7x7, partner max 10 µM) the Bliss excess [1] was 0.077, the Bliss excess (TGW (Neuroblastoma)) was -0.104 and the Bliss excess (NB69 (Neuroblastoma)) was 0.0278. The Bliss excess [2] was -0.0113, the Bliss excess [3] was 0.0384 and the Bliss excess [4] was -0.0045. For the same compound, the Bliss excess [5] was 0.0059, the Bliss excess (D-263MG (Glioblastoma)) was 0.0028 and the Bliss excess [6] was -0.0383. For the same compound, the Bliss excess [7] was 0.0366, the Bliss excess (TK10 (Kidney Carcinoma)) was 0.0043 and the Bliss excess [8] was 0.0292. It also gave a Bliss excess [9] of -0.0367, a Bliss excess [10] of 0.0015 and a Bliss excess (EW-24 (Ewing's Sarcoma)) of -0.0223. The Bliss excess [11] was -0.034, the Bliss excess [12] was 0.0259 and the Bliss excess [13] was 0.0032. For the same compound, the Bliss excess [14] was -0.0293 and the “combination Emax” value [15] was 0.152.
